According to ChEMBL document CHEMBL3865781, “Recent advances in the discovery and development of antibacterial agents targeting the cell-division protein FtsZ” (Bioorg Med Chem, 2016):
Values after ≈ are worked out from the molar mass of the structure shown.

Legend:
[1] = tested on: Mycobacterium tuberculosis; assay: Antimycobacterial activity against Mycobacterium tuberculosis H37Rv after 2 weeks; format: functional; settings: 336 h
Bacillus subtilis [2] = assay: Antibacterial activity against Bacillus subtilis; format: functional
Escherichia coli [3] = assay: Antibacterial activity against Escherichia coli ATCC 25922 after 18 hrs by broth microdilution method; format: functional; settings: ATCC 25922, 18 h
Staphylococcus aureus [4] = assay: Antibacterial activity against methicillin-resistant Staphylococcus aureus ATCC BAA-41 after 18 hrs by broth microdilution method; format: functional; settings: ATCC BAA-41, 18 h
Enterococcus faecalis [5] = assay: Antimicrobial activity against vancomycin-sensitive Enterococcus faecalis after 18 hrs by broth microdilution method; format: functional
Klebsiella pneumoniae = assay: Antibacterial activity against Klebsiella pneumoniae ATCC BAA-1144 after 18 hrs by broth microdilution method; format: functional; settings: ATCC BAA-1144, 18 h
Staphylococcus aureus [6] = assay: Antibacterial activity against methicillin-sensitive Staphylococcus aureus after 18 hrs by broth microdilution method; format: functional
[7] = Inhibition of Escherichia coli FtsZ polymerization expressed in Escherichia coli BL21 assessed as reduction in light scattering intensity in presence of GTP by fluorescence spectrometric analysis
[8] = tested on: Mycobacterium tuberculosis; assay: Antibacterial activity against Mycobacterium tuberculosis H37Rv measured every 24 hrs for 7 days by MABA assay; format: functional
[9] = tested on: Mycobacterium tuberculosis; assay: Antibacterial activity against Mycobacterium tuberculosis NHN382 clinical isolates measured every 24 hrs for 7 days by MABA assay; format: functional
[10] = tested on: Mycobacterium tuberculosis; assay: Antibacterial activity against Mycobacterium tuberculosis TN587 clinical isolates measured every 24 hrs for 7 days by MABA assay; format: functional
[11] = tested on: Mycobacterium tuberculosis; assay: Antibacterial activity against Mycobacterium tuberculosis W210 clinical isolates measured every 24 hrs for 7 days by MABA assay; format: functional
Bacillus subtilis [12] = assay: Inhibition of Bacillus subtilis FtsZ polymerization expressed in Escherichia coli BL21(DE3) pLysS at 2 uM preincubated for 15 mins followed by GTP addition by spectrofluorometric analysis relative to control
Bacillus subtilis [13] = assay: Inhibition of Bacillus subtilis FtsZ polymerization expressed in Escherichia coli BL21(DE3) pLysS at 5 uM preincubated for 15 mins followed by GTP addition by spectrofluorometric analysis relative to control
Bacillus subtilis [14] = assay: Inhibition of Bacillus subtilis FtsZ polymerization expressed in Escherichia coli BL21(DE3) pLysS at 10 uM preincubated for 15 mins followed by GTP addition by spectrofluorometric analysis relative to control
Bacillus subtilis [15] = assay: Inhibition of Bacillus subtilis FtsZ GTPase activity expressed in Escherichia coli BL21(DE3) pLysS at 24 uM preincubated for 15 mins followed by GTP addition after 10 mins by malachite green ammonium molybdate assay relative to control
Enterococcus faecalis [16] = assay: Antimicrobial activity against vancomycin-resistant Enterococcus faecalis after 18 hrs by broth microdilution method; format: functional
[17] = tested on: Mycobacterium tuberculosis; assay: Antibacterial activity against Mycobacterium tuberculosis NHN20 clinical isolates measured every 24 hrs for 7 days by MABA assay; format: functional
[18] = tested on: Mycobacterium tuberculosis; assay: In vivo antibacterial activity against Mycobacterium tuberculosis str. Erdman infected in C57BL/6 mouse assessed as reduction in bacterial load in lungs at 50 mg/kg, ip bid on day 5 to 14 post infection measured on day 15 post infection; format: functional, Erdman = ATCC 35801
[19] = tested on: Mycobacterium tuberculosis; assay: In vivo antibacterial activity against Mycobacterium tuberculosis H37Rv infected in GKO-TB mouse assessed as reduction in bacterial load in spleen at 50 mg/kg, ip or po bid for 10 consecutive days; format: functional
Staphylococcus aureus [20] = assay: Antibacterial activity against Staphylococcus aureus ATCC 29213 after 18 hrs by broth microdilution assay; format: functional; settings: ATCC 29213, 18 h
Escherichia coli [21] = assay: Antibacterial activity against Escherichia coli ATCC 25922 after 18 hrs by broth microdilution assay; format: functional; settings: ATCC 25922, 18 h
[22] = molecular target: T1, Cell division protein FtsZ (Staphylococcus aureus, UniProt P0A031); assay: Inhibition of Staphylococcus aureus ATCC 29213 N-terminal His6-tagged FtsZ GTPase activity expressed in Escherichia coli BL21(DE3) assessed as reduction in inorganic phosphate release preincubated for 10 mins followed by GTP addition after 30 mins
T1 sequence (P0A031 whole entry): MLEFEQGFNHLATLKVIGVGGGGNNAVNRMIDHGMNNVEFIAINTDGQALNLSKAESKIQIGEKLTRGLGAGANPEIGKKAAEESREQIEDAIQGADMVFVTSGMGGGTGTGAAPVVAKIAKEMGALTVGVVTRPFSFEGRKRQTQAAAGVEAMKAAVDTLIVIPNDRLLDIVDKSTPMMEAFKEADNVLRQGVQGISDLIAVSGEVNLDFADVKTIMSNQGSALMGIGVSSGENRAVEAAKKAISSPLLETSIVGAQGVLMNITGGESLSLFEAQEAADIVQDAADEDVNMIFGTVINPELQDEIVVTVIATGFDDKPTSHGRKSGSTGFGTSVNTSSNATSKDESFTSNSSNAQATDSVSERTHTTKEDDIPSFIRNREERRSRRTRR

[23] = Displacement of mant-GTP from Bacillus subtilis FtsZ by spectrofluorometric assay
Bacillus subtilis [24] = assay: Antibacterial activity against Bacillus subtilis 168 harboring trpC2 after 4 hrs; format: functional; settings: subsp. subtilis str. 168, 4 h
Escherichia coli [25] = assay: Antibacterial activity against Escherichia coli K12 MG1655 after 4 hrs; format: functional; settings: K-12 substr. MG1655, 4 h

SMILES: O=c1ccc2ccc(O)cc2o1 [UMBELLIFERONE]
- MIC [1]: 58 µg/mL (≈ 358 µM)

SMILES: O=C(Oc1cc(OC(=O)c2ccc(O)c(Cl)c2)c2ccccc2c1)c1ccc(O)c(Cl)c1
- MIC (Bacillus subtilis [2]): 13 µM (≈ 6.1 µg/mL)

SMILES: Cc1nc2ccccc2n1C(=O)/C=C/c1ccc(Cl)cc1Cl
- MIC (Escherichia coli [3]): 32 to 128 µg/mL (≈ 96.6 to 386 µM)
- MIC (Staphylococcus aureus [4]): 2 to 8 µg/mL (≈ 6.04 to 24.2 µM)
- MIC (Enterococcus faecalis [5]): 4 to 16 µg/mL (≈ 12.1 to 48.3 µM)
- MIC (Klebsiella pneumoniae): 32 to 128 µg/mL (≈ 96.6 to 386 µM)
- MIC (Staphylococcus aureus [6]): 2 to 8 µg/mL (≈ 6.04 to 24.2 µM)

SMILES: O=C(O)/C=C/c1ccc(O)cc1 [COUMARIC ACID]
- MIC (Escherichia coli [3]): 32 to 128 µg/mL (≈ 195 to 780 µM)
- MIC (Staphylococcus aureus [4]): 2 to 8 µg/mL (≈ 12.2 to 48.7 µM)
- IC50 [7]: 190 µM
- MIC (Enterococcus faecalis [5]): 4 to 16 µg/mL (≈ 24.4 to 97.5 µM)
- MIC (Klebsiella pneumoniae): 32 to 128 µg/mL (≈ 195 to 780 µM)
- MIC (Staphylococcus aureus [6]): 2 to 8 µg/mL (≈ 12.2 to 48.7 µM)

SMILES: CCCCOC(=O)Nc1cc2nc(C3CCCCC3)[nH]c2cc1N(C)C
- MIC99 [8]: 0.06 µg/mL (≈ 0.167 µM)
- MIC99 [9]: 0.06 µg/mL (≈ 0.167 µM)
- MIC99 [10]: 0.13 µg/mL (≈ 0.363 µM)
- MIC99 [11]: 0.06 µg/mL (≈ 0.167 µM)

SMILES: COc1cc(OC)c(OC)cc1/C=C/C(=O)O
- MIC (Escherichia coli [3]): 32 to 128 µg/mL (≈ 134 to 537 µM)
- MIC (Staphylococcus aureus [4]): 2 to 8 µg/mL (≈ 8.39 to 33.6 µM)
- IC50 [7]: 149 µM
- MIC (Enterococcus faecalis [5]): 4 to 16 µg/mL (≈ 16.8 to 67.2 µM)
- MIC (Klebsiella pneumoniae): 32 to 128 µg/mL (≈ 134 to 537 µM)
- MIC (Staphylococcus aureus [6]): 2 to 8 µg/mL (≈ 8.39 to 33.6 µM)

SMILES: CC1=CC(=O)c2c(O)cccc2C1=O [PLUMBAGIN]
- MIC (Escherichia coli [3]): 32 to 128 µg/mL (≈ 170 to 680 µM)
- MIC (Staphylococcus aureus [4]): 2 to 8 µg/mL (≈ 10.6 to 42.5 µM)
- inhibition (Bacillus subtilis [12]): 26%
- inhibition (Bacillus subtilis [13]): 33%
- inhibition (Bacillus subtilis [14]): 45%
- inhibition (Bacillus subtilis [15]): 58%
- MIC (Enterococcus faecalis [16]): 4 to 16 µg/mL (≈ 21.3 to 85 µM)
- MIC (Enterococcus faecalis [5]): 4 to 16 µg/mL (≈ 21.3 to 85 µM)
- MIC (Klebsiella pneumoniae): 32 to 128 µg/mL (≈ 170 to 680 µM)
- MIC (Staphylococcus aureus [6]): 2 to 8 µg/mL (≈ 10.6 to 42.5 µM)

SMILES: COc1cc(C/C=C(/Cl)Cc2cc(O)cc(O)c2)c(OC)cc1Cl
- MIC (Escherichia coli [3]): 32 to 128 µg/mL (≈ 86.7 to 347 µM)
- MIC (Staphylococcus aureus [4]): 2 to 8 µg/mL (≈ 5.42 to 21.7 µM)
- MIC (Enterococcus faecalis [5]): 4 to 16 µg/mL (≈ 10.8 to 43.3 µM)
- MIC (Klebsiella pneumoniae): 32 to 128 µg/mL (≈ 86.7 to 347 µM)
- MIC (Staphylococcus aureus [6]): 2 to 8 µg/mL (≈ 5.42 to 21.7 µM)

SMILES: CCCCOC(=O)Nc1cc2nc(C3CCCCC3)[nH]c2cc1N1CCCC1
- MIC99 [8]: 0.39 µg/mL (≈ 1.01 µM)
- MIC99 [9]: 0.31 µg/mL (≈ 0.806 µM)
- MIC99 [10]: 0.16 µg/mL (≈ 0.416 µM)
- MIC99 [11]: 0.63 µg/mL (≈ 1.64 µM)

SMILES: Cc1nc2ccccc2n1C(=O)/C=C/c1ccc(F)cc1
- MIC (Escherichia coli [3]): 32 to 128 µg/mL (≈ 114 to 457 µM)
- MIC (Staphylococcus aureus [4]): 2 to 8 µg/mL (≈ 7.14 to 28.5 µM)
- MIC (Enterococcus faecalis [5]): 4 to 16 µg/mL (≈ 14.3 to 57.1 µM)
- MIC (Klebsiella pneumoniae): 32 to 128 µg/mL (≈ 114 to 457 µM)
- MIC (Staphylococcus aureus [6]): 2 to 8 µg/mL (≈ 7.14 to 28.5 µM)

SMILES: CN(C)c1cc2[nH]c(C3CCCCC3)nc2cc1NC(=O)c1ccc(OC(F)(F)F)cc1F
- MIC99 [8]: 0.31 µg/mL (≈ 0.667 µM)
- MIC99 [9]: 0.31 µg/mL (≈ 0.667 µM)
- MIC99 [10]: 0.31 µg/mL (≈ 0.667 µM)
- MIC99 [11]: 0.47 µg/mL (≈ 1.01 µM)
- MIC99 [17]: 0.24 µg/mL (≈ 0.517 µM)
- Activity [18]: 5.7 - 6.3 log10CFU
- Activity [19]: 3.9 - 5 log10CFU

SMILES: CCC(CC)c1cc([C@H]2CN3CC[C@H]2C[C@@H]3CN)nc(-c2ccncc2)n1
- MIC (Staphylococcus aureus [20]): 24.6 µM (≈ 8.99 µg/mL)
- MIC (Escherichia coli [21]): 49.6 µM (≈ 18.1 µg/mL)
- IC50 [22]: 37.5 µM

SMILES: O=C(Oc1cc(OC(=O)c2cc(O)c(O)c(O)c2)c2ccccc2c1)c1cc(O)c(O)c(O)c1
- Kd [23]: 0.4 to 0.8 µM
- MIC (Bacillus subtilis [2]): 100 µM (≈ 46.4 µg/mL)

SMILES: O=C(Oc1cc(OC(=O)c2cc(O)cc(O)c2)c2ccccc2c1)c1cc(O)cc(O)c1
- Kd [23]: 0.4 to 0.8 µM
- MIC (Bacillus subtilis [2]): 25 µM (≈ 10.8 µg/mL)

SMILES: CC(C)(C)c1ccc(-c2ncnc3c(CNC(=N)N)cccc23)cc1
- MIC (Staphylococcus aureus [20]): 449 µM (≈ 150 µg/mL)
- MIC (Escherichia coli [21]): 897 µM (≈ 299 µg/mL)
- IC50 [22]: 317 µM

SMILES: COc1cc(/C=C/C(=O)CC(=O)/C=C/c2ccc(O)c(OC)c2)ccc1O [CURCUMIN]
- MIC (Escherichia coli [3]): 32 to 128 µg/mL (≈ 86.9 to 347 µM)
- MIC (Staphylococcus aureus [4]): 2 to 8 µg/mL (≈ 5.43 to 21.7 µM)
- IC50 (Bacillus subtilis [24]): 17 µM
- IC50 (Escherichia coli [25]): 58 µM
- MIC (Enterococcus faecalis [5]): 4 to 16 µg/mL (≈ 10.9 to 43.4 µM)
- MIC (Klebsiella pneumoniae): 32 to 128 µg/mL (≈ 86.9 to 347 µM)
- MIC (Staphylococcus aureus [6]): 2 to 8 µg/mL (≈ 5.43 to 21.7 µM)

SMILES: Oc1cc(O)c2c(c1)C/C(Cl)=C\Cc1cc(c(Cl)cc1O)Oc1c(O)cc(cc1O)C/C(Cl)=C\Cc1cc(c(Cl)cc1O)O2
- MIC (Escherichia coli [3]): 32 to 128 µg/mL (≈ 47.2 to 189 µM)
- MIC (Staphylococcus aureus [4]): 2 to 8 µg/mL (≈ 2.95 to 11.8 µM)
- MIC (Enterococcus faecalis [5]): 4 to 16 µg/mL (≈ 5.9 to 23.6 µM)
- MIC (Klebsiella pneumoniae): 32 to 128 µg/mL (≈ 47.2 to 189 µM)
- MIC (Staphylococcus aureus [6]): 2 to 8 µg/mL (≈ 2.95 to 11.8 µM)
